Assay results published in patent publication US5491072A, “N-alkylacridan carboxyl derivatives useful for chemiluminescent detection” (Lumigen, Inc., priority 1993, dated 1996).

Key:
HRP [1] = target: T1, HRP (Armoracia rusticana, UniProt P00433); test: Improvement of detection by phenol enhancers; type: biochemical, horseradish; details: 2.25 mM enhancer, 0.1 mM 1b, 0.8 mM H2O2, 0.5% Tween 20, 0.1M tris pH 8.5, 25° C., 1×10^-15 mol HRP, 30 min
T1 sequence (P00433 31-338 limits assumed): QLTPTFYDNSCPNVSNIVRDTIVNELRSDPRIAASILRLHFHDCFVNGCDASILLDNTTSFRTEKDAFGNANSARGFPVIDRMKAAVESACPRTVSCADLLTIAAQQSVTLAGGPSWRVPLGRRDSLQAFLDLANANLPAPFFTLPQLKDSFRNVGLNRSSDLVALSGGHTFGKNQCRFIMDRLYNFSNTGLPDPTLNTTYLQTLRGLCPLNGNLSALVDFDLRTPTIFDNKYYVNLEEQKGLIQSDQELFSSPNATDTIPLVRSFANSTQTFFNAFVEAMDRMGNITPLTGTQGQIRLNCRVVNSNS
Method: (§1) The experiments in the following examples were performed using a Turner Designs TD-20e luminometer fitted with neutral density filter for light attenuation. Data collection, analysis and display were software controlled. Constant temperature was maintained by means of an external circulating water bath connected to the luminometer.
To 220 μL of a formulation containing 0.1 mM 1b, 2.25 mM enhancer, 0.8 mM H2 O2, 0.5% (w/w) Tween 20 and 1 mM EDTA in 0.1M tris buffer, pH 8.5 at 25° C. an aliquot containing 1×10^-15 mol of HRP was injected and the chemiluminescence at 30 min was measured.

HRP [2] = target: T1, HRP; test: Optimization of enhancer and peroxide concentration, HRP-catalyzed oxidation of 1b; type: biochemical, horseradish; details: at the best level, 7×10^-16 mol HRP, 15 min, 0.1M tris pH 8.0, substrate 1b
Method: as §1
Enhancement of light emission from the HRP-catalyzed oxidation of 1b was studied using p-iodophenol. A series of concentrations of p-iodophenol (0.23 mM-4.5 mM) was used in 0.1M tris buffer, pH 8.0. Signal to background ratios obtained after incubation with 7×10^-16 mol of HRP for 15 min were compared using different assay reagents 1b (0.1 mM-0.05 mM) and peroxide (0.2 mM-0.8 mM)]. The best compromise between sensitivity and concentration was obtained using 1.1 mMp-iodophenol with 0.8 mMperoxide and 0.05 mM 1b. At the best level, 2500-fold enhancement in chemiluminescence intensity (compared to an identical solution containing no enhancer) was obtained using p-iodophenol with 7×10^-16 mol of enzyme.

horseradish peroxidase = target: T2, horseradish peroxidase (Armoracia rusticana, UniProt P00433); test: Comparison of compounds 1a-e at pH 8.9, time course and total intensity of chemiluminescence; type: biochemical; details: 0.01 mM acridan, 0.1M phosphate pH 8.9, 6.2 mM H2O2, 2.25 mM p-iodophenol, 1×10^-13 mol HRP; for I max (RLU), peak light intensity: 0.5% Tween 20, 1 mM EDTA
T2 sequence (P00433 31-338 limits assumed): T1 sequence (P00433 31-338 limits assumed)
Method: as §1
A 200 μL volume of a formulation containing 0.01 mM acridan compound 1a-e in 0.1M phosphate buffer, pH 8.9, […] (6.2 mM) H2 O2, 2.25 mM p-iodophenol, 0.5% (w/w) Tween 20 and 1 mM EDTA was reacted with 1×10^-13 mol of horseradish peroxidase. […] Compared below are the peak light intensity (Imax) in relative light units (RLU), the time to maximum light intensity (tmax) and total light output.

[3] = Improvement of detection by surfactants, background luminescence of 1b solution without peroxidase; details: Tween 20 0.5%-1%; no added peroxidase
Excerpt: The improvement occurs through minimizing the background chemiluminescence in the absence of added peroxidase, possibly due to a slowing of the autoxidative decomposition of the ester. In one experiment, Tween 20 (0.5%-1%) decreased the background luminescence from a solution of 1b by a factor of 65 compared to a similar solution lacking the surfactant.

[4] = benzoyl peroxide, aqueous solution; cited from earlier work

Molecule | S/B (HRP [1]) | I max (RLU), peak light intensity (horseradish peroxidase) | I total (RLU), total light output (horseradish peroxidase) | t max (min), time to maximum light intensity (horseradish peroxidase) | also measured
Oc1ccc(I)cc1 [p-iodophenol] | 600 |  |  |  | enhancement in chemiluminescence intensity (compared to an identical solution containing no enhancer) (HRP [2]): 2500 fold
O=C(O)C=Cc1ccc(O)cc1 [p-hydroxycinnamic acid] | 9 |  |  |  | 
CN1c2ccccc2C(C(=O)Oc2cccc(O)c2)c2ccccc21 [Compound 1c, 3'-Hydroxyphenyl 10-methylacridan-9-carboxylate] |  | 24 RLU | 3.6 × 10^4 RLU | 7.8 min | 
Oc1ccc2ccccc2c1 [Compound 2-naphthol, 2-naphthol] | 138 |  |  |  | 
CCCCCCCCCCCCOS(=O)(=O)[O-].[Na+] [SDS, sodium dodecyl sulfate] |  |  |  |  | decrease of background luminescence from a solution of 1b (factor, compared to a similar solution lacking the surfactant) [3]: similarly lowers background luminescence
Oc1ccc(-c2ccccc2)cc1 [p-phenylphenol] | 200 |  |  |  | 
CN1c2ccccc2C(C(=O)Oc2ccc3cc(O)ccc3c2)c2ccccc21 [Compound 1d, 6'-Hydroxynaphthyl 10-methylacridan-9-carboxylate] |  | 992 RLU | 7.4 × 10^5 RLU | 1.8 min | 
CN1c2ccccc2C(C(=O)Oc2ccccc2)c2ccccc21 [Compound 1a, Phenyl 10-methylacridan-9-carboxylate] |  | 247 RLU | ca. 6 × 10^5 RLU | 9.6 min | 
c1ccc2c(c1)Cc1ccccc1N2 [acridan] |  |  |  |  | chemiluminescence efficiency (OCL) [4]: 3×10^-7
Cc1ccc(S(=O)(=O)N(C(=O)C2c3ccccc3N(C)c3ccccc32)c2ccccc2)cc1 [Compound 1e] |  | 8160 RLU | 1.5 × 10^6 RLU | 1.4 min | 
Tween 20 |  |  |  |  | decrease of background luminescence from a solution of 1b (factor, compared to a similar solution lacking the surfactant) [3]: 65
